The target in one assay is T1, estrogen receptors (Rattus norvegicus, UniProt P06211).
T1 construct: Aliquot of uterine cytosol (200 μl; 2 uteri per ml) prepared in TEA buffer; from tissue; host or cells: uterine cytosol of immature estradiol-primed 20-21 day old rats
T1 sequence (P06211 1-600): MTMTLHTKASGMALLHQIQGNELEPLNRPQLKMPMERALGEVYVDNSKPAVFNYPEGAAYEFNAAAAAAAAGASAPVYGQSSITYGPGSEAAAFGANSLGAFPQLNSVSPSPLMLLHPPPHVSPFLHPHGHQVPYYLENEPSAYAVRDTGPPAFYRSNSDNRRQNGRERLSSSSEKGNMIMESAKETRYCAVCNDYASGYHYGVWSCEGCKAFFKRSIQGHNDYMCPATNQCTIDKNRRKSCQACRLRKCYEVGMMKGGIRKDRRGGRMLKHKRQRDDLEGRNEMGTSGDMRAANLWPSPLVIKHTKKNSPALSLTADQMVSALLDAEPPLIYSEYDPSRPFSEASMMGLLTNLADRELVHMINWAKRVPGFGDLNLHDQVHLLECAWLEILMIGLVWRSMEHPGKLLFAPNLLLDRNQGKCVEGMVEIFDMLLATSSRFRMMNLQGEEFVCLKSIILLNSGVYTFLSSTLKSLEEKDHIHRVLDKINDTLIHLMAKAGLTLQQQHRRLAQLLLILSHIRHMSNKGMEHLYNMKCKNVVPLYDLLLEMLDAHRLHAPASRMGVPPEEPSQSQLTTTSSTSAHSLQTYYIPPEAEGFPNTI
Briefly: Relative binding affinity (RBA) to estrogen receptors, 3H-estradiol competition assay. The settings on record: rat uterine cytosol, 3H-E2, 18 hrs at 4° C.; relative to 17-beta-estradiol = 100.

Assay [1] relates to immature ovariectomized rats. Briefly: Estrogen agonistic activity (uterine weight and uterine morphometry). The format is in vivo, rat. Here is the method: Twenty-one-day-old immature female rats are bilaterally ovariectomized under light ether anaesthesia and, after post-operative rest for 7 days, are randomized into different treatment groups. Each rat receives the compound of the invention once daily for 3 consecutive days on days 28-30 of age. A separate group of animals receiving only the vehicle for similar duration serves as control. At autopsy 24 h after the last treatment on day 31 of age, vaginal smear of each rat is taken and uterus is carefully excised, gently blotted, weighed and fixed for histology and histomorphometry using image analysis. Premature opening of vagina, cornification of vaginal epithelium, increase in uterine fresh weight, total uterine and endometrial area and uterine luminal epithelial cell height are taken as parameters for evaluation of estrogen agonistic activity in comparison to rats of vehicle control group.
For image analysis in estrogen agonistic activity evaluation studies, paraffin sections (6 μm thick) of the uterus stained with haematoxylin and eosin were analysed microscopically. To determine changes in uterine tissue components, areas of whole uterus and endometrium and the thickness of uterine epithelium were measured using a computer-image analysis system (BioVis, Expert Vision, India). Briefly, microscopic images of uterus acquired through a CCD camera were loaded in to the image analysis program and spatially calibrated against a stage micrometer image taken at the same magnification. Using thresholding and line tools, the regions for measurements were selected and the area (mm^2) of whole uterine transection excluding the luminal space, the area (mm^2) of the endometrium only, and the thickness (μm) of luminal epithelial lining were measured. Luminal epithelial thickness data was the Average of measurements made at 6 randomly selected sites are taken as parameters for evaluation.

The subject of a further assay is adult female rats. Briefly: Post-coital antifertility activity. The format is in vivo, rat. The conditions noted are these: for % Efficacy: oral. How it is done: Adult female rats are caged overnight with coeval males of proven fertility and their vaginal smears are checked on the following morning. The day of presence of spermatozoa in the vaginal smear is taken as day 1 of pregnancy. […] Animals of all the groups are autopsied on day 10 post-coitum and number and status of corpora lutea and implantation sites in each rat are recorded. The compounds of the present invention are considered active if there is complete absence of implantations in the uterus of all rats, in comparison to presence of normal implantations in the uterus of rats of vehicle control group.

Assay [2] concerns immature ovariectomized rats. Briefly: Estrogen antagonistic activity (EE induced uterine weight gain). The format is in vivo, rat. The settings on record: 0.05 mg/kg daily with 0.02 mg/kg 17-alfa-ethynylestradiol, 3 days. Here is the method:
Twenty-one-day-old immature female rats are bilaterally ovariectomized under light ether anaesthesia and after post-operative rest for 7 days, are randomized into different treatment groups. Each rat receives the compounds of the invention and 0.02 mg/kg dose of 17-alfa-ethynylestradiol in 10% ethanol-distilled water once daily for 3 consecutive days on days 28-30 of age. A separate group of animals-receiving only 17-alfa-ethynylestradiol (0.02 mg/kg) in 10% ethanol-distilled water for similar duration are used for comparison. At autopsy on day 31 of age, vaginal smear of each rat is taken and uterus is carefully excised, gently blotted, weighed and fixed for histology and histomorphometry using image analysis. Inhibition in 17-alfa-ethynylestradiol-induced premature opening of vagina, cornification of vaginal epithelium, increase in uterine fresh weight, total uterine and endometrial area and uterine luminal epithelial cell height are taken as parameters for evaluation of estrogen antagonistic activity.

Here are results for one compound from patent publication US7427686B2, “(3R, 4R)-trans-3, 4-diarylchroman derivatives and a method for the prevention and/or treatment of estrogen dependent diseases” (Counsel of Scientific and Industrial Research, priority 2003, dated 2008).

At estrogen receptors, `CCCCNC[C@@H](O)COc1ccc([C@@H]2c3ccc(OC)cc3OC(C)(C)[C@H]2c2ccccc2)cc1` (relative stereo) [Example number 2, 3R,4R-trans-2,2-dimethyl-3-phenyl-4-(4-[{2R)-(3-n-butylamino-2-hydroxy}propyloxy]-phenyl)-7-methoxychroman] displayed an RBA of 5.45. Also, the “Endometrium Epithelial cell height” value in assay [1] (0.05 mg/kg daily) worked out at 8.69 μm. In assay [1] (0.05 mg/kg daily), the “Endometrium Total area” value is given as 0.08 mm^2. The “Uterus Total area” value in assay [1] (0.05 mg/kg daily) came to 0.175 mm^2. Besides, in assay [1] (0.05 mg/kg daily, 3 days), the “Percent increase in uterine weight (percent of OVX + vehicle treatment group)” value is given as 38%. Further, the “estrogenic activity at the MED” value in assay [1] (at the MED (0.05 mg/kg)) is reported as “devoid of any estrogenic activity”. The “% Efficacy” value turned out to be 67% with adult female rats (0.025 mg/kg daily, days 1-5 post-coitum); 100% in the assay with adult female rats (0.05 mg/kg daily, days 1-5 post-coitum); 100% in the assay with adult female rats (0.1 mg/kg daily, days 1-7 post-coitum); 100% in the assay with adult female rats (0.5 mg/kg, day 1 post-coitum); 100% in the assay with adult female rats (1 mg/kg, day 1 post-coitum). For the same compound, the “MED (prevention of pregnancy)” value in the assay with adult female rats (rats, administered during the pre-implantation period) was determined as 0.05 mg/kg. In assay [2], the “Percent inhibition in EE induced uterine weight gain” value came to 09%.
